Results reported in US20220274947A1, “NOVEL HETEROARYL-TRIAZOLE COMPOUNDS AS PESTICIDES” (Bayer Aktiengesellschaft, priority 2019, published 2022).

Experiments:
Type in all cases: in vivo
Spodoptera frugiperda = Spodoptera frugiperda spray test; conditions: in Zea mays, 168 h, read-out: activity (mortality)
Method in brief: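 Maize leaf sections were sprayed with compound formulated in acetone/DMF and diluted in water containing 1000 ppm emulsifier. Dried leaves were infested with fall armyworm larvae, and percent mortality was scored after 7 days.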

Myzus persicae [1] = assay: Myzus persicae oral test; conditions: 120 h, read-out: activity (mortality)
Method in brief: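 Percent mortality was recorded at day 5, where 0% means no aphids killed. Compound prepared from an acetone concentrate diluted in water and combined with IPL41 medium containing sugar was offered to mixed-stage green peach aphids, which sucked it through a parafilm seal.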

Nezara viridula = Nezara viridula spray test; conditions: in Hordeum vulgare, 96 h, barley plants, larvae, after 4 days; for mortality at 100 g/ha: application rate 100 g/ha; for mortality at 500 g/ha: application rate 500 g/ha
Procedure: Nezara viridula—Spray Test Solvent: 78.0 parts by weight of acetone • • 1.5 parts by weight of dimethylformamide Emulsifier: alkylarylpolyglycol ether
(§1) To produce a suitable preparation of active compound, 1 part by weight of active compound is mixed with the stated amount of solvent, and the concentrate is diluted with water, containing an emulsifier concentration of 1000 ppm, to the desired concentration. Further test concentrations are prepared by dilution with emulsifier containing water.
Barley plants (Hordeum vulgare) infested with larvae of the southern green stink bug (Nezara viridula) are sprayed with a test solution containing the desired concentration of the active ingredient.
After 4 days mortality in % is determined. 100% means all the stink bugs have been killed; 0% means none of the stink bugs have been killed.

Myzus persicae [2] = assay: Myzus persicae spray test; conditions: in Brassica rapa, foliar, 120 h, read-out: activity (mortality), application rate 100 g/ha, spray, Chinese cabbage leaf disks, after 5 days
Procedure: as §1, with “Myzus persicae—Spray Test Solvent: 78.0 parts by weight acetone • 1.5 parts by weight dimethylformamide Emulsifier: alkylarylpolyglycol ether To” for “To”, “solvents” for “solvent,”, “and” for “and the concentrate”
Chinese cabbage (Brassica pekinensis) leaf disks infected with all instars of the green peach aphid (Myzus persicae), are sprayed with a preparation of the active ingredient of the desired concentration.
After 5 days mortality in % is determined. 100% means all aphids have been killed and 0% means none of the aphids have been killed.

Rhipicephalus sanguineus = Rhipicephalus sanguineus in-vitro contact test, adult brown dog ticks (RHIPSA Cont); conditions: 48 h, after 48 hours, read-out: activity (efficacy: 100% means all ticks are dead or moribund); for pest or weed control at 5 µg/cm2, 500 g/ha: application rate 5 μg/cm^2 (=500 g/ha); for pest or weed control at 1 µg/cm2, 100 g/ha: application rate 1 μg/cm^2 (=100 g/ha)
Method in brief: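 Compound in acetone (9 mg/mL stock, diluted to test concentration) is coated onto inner walls of glass tubes by rotation for 2 h at 30 rpm. Efficacy is read after 48 h: ticks are tapped down and held on a 45-50° C plate for at most 5 min, and immotile or uncoordinated ones that fail to climb away count as dead or moribund.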

Ctenocephalides felis [3] = assay: Ctenocephalides felis in-vitro contact test, adult cat flea (CTECFE Cont); conditions: application rate 5 μg/cm^2 (=500 g/ha), adult cat fleas, after 48 hours, read-out: activity (efficacy: 100% means all fleas are dead or moribund)
Method in brief: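 Acetone solutions coated on glass tube inner walls (900 ppm giving 5 μg/cm^2), then 5-10 adult fleas added and held 48 h at room temperature. Fleas unable to escape a 45-50° C. heating plate within 5 min scored dead or moribund; efficacy = % dead/moribund.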

Diabrotica balteata = Diabrotica balteata spray test; conditions: 168 h, wheat seeds, larvae, after 7 days, read-out: activity (efficacy: 100% means all seedlings have grown up like in the untreated, uninfected control); for pest or weed control at 32 µg/disc, 100 g/ha: application rate 100 g/ha (=32 μg/well); for pest or weed control at 160 µg/disc, 500 g/ha: application rate 500 g/ha (=160 μg/well)
Method in brief: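 Wheat seedlings, germinated 1 day on agar, were sprayed with compound in acetone/DMF diluted in water containing emulsifier, then infested with 10-20 Diabrotica balteata larvae. After 7 days efficacy in % was scored: 100% means seedlings grew like the untreated, uninfected control; 0% means none grew.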

Rhipicephalus microplus [4] = assay: Rhipicephalus (Boophilus) microplus in-vitro contact test, larval cattle tick, strain Parkhurst (BOOPMI Cont); conditions: application rate 5 μg/cm^2 (=500 g/ha), tick larvae, after 48 hours, read-out: activity (efficacy: 100% means all larvae are dead or moribund)
Method in brief: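 Acetone solutions dried onto glass tube walls (900 ppm giving 5 μg/cm^2); 20-50 pyrethroid-resistant Parkhurst larvae added per tube and held 48 h at 27° C., 85% relative humidity. Efficacy scored by negative geotaxis as % dead or moribund larvae.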

Ctenocephalides felis [5] = assay: Ctenocephalides felis oral test (CTECFE Oral); conditions: 48 h, read-out: activity (mortality)
Method in brief: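 About 20 unfed adult cat fleas fed through parafilm on cattle blood containing compound (DMSO concentrate diluted in blood to the desired concentration). Blood held at 37 °C, fleas at room temperature. Mortality (%) scored after 2 days.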

Rhipicephalus microplus [6] = assay: Rhipicephalus (Boophilus) microplus injection test (BOOPMI Inj); conditions: 168 h, injection into adult engorged female ticks, egg deposition after 7 days, read-out: activity (efficacy: 100% means all eggs are infertile); for pest or weed control at 0.004 mg: application rate 4 μg/tick; for pest or weed control at 0.02 mg: application rate 20 μg/tick
Method in brief: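 Five engorged adult female R. microplus ticks injected into the abdomen with 1 μL of compound diluted in DMSO, then kept in a climate chamber. Fertile egg deposition checked after 7 days; eggs without visible fertility held until hatching at about 42 days. Efficacy: 100% = all eggs infertile, 0% = all fertile.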

[7] = test system: Musca domestica strain WHO—N; assay: Musca domestica test (MUSCDO surface treatment & contact assay); conditions: exposure 30 minutes, 24 hours after contact, read-out: efficacy (mortality); for mortality at 20 mg/m2: surface concentration 20 mg/m^2, glazed tile; for mortality at 4 mg/m2: surface concentration 4 mg/m^2, glazed tile
Method in brief: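 Compound dissolved in acetone (2 mg/ml) with 2000 ppm rapeseed oil methyl ester and pipetted onto glazed tile; after acetone evaporation, adult flies exposed to dried surface for 30 minutes. Mortality (%) scored 24 hours after contact.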

[8] = test system: Aedes aegypti strain MONHEIM; assay: Aedes aegypti test (AEDSAE surface treatment & contact assay); conditions: surface concentration 20 mg/m^2, glazed tile, exposure 30 minutes, 24 hours after contact, read-out: efficacy (mortality)
Method in brief: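 Compound dissolved in acetone (2 mg/ml) with 2000 ppm rapeseed oil methyl ester, pipetted onto glazed tile and dried. Adult mosquitoes exposed on the surface for 30 min; percent mortality scored 24 h after contact.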

Structure (SMILES): Cc1nc([C@H](C)NC(=O)c2cc(OC(F)F)cc(OC(F)F)c2)n(-c2ccc(C#N)cn2)n1 [II-115]
- mortality at 100 g/ha (Spodoptera frugiperda): 100%
- mortality at 0.8 ppm (Myzus persicae [1]): 100%
- mortality at 4 ppm (Myzus persicae [1]): 100%
- mortality at 100 g/ha (Nezara viridula): 100%
- mortality at 100 g/ha (Myzus persicae [2]): 90%
- pest or weed control at 5 µg/cm2, 500 g/ha (Rhipicephalus sanguineus): 100%
- pest or weed control at 5 µg/cm2 (Ctenocephalides felis [3]): 90%
- pest or weed control at 32 µg/disc, 100 g/ha (Diabrotica balteata): 100%
- pest or weed control at 5 µg/cm2 (Rhipicephalus microplus [4]): 100%

Structure (SMILES): C[C@H](NC(=O)c1cc(Cl)cc(OC(F)(F)F)c1)c1ncnn1-c1ncc(Br)s1 [II-15, N-{(1S)-1-[1-(5-bromo-1,3-thiazol-2-yl)-1H-1,2,4-triazol-5-yl]ethyl}-3-chloro-5-(trifluoromethoxy)benzamide]
- mortality at 500 g/ha (Spodoptera frugiperda): 100%
- mortality at 500 g/ha (Nezara viridula): 90%
- pest or weed control at 5 µg/cm2 (Ctenocephalides felis [3]): 80%
- pest or weed control at 32 µg/disc, 100 g/ha (Diabrotica balteata): 100%
- pest or weed control at 160 µg/disc, 500 g/ha (Diabrotica balteata): 100%
- pest or weed control at 5 µg/cm2 (Rhipicephalus microplus [4]): 100%
- mortality at 100 ppm (Ctenocephalides felis [5]): 100%
- pest or weed control at 0.004 mg (Rhipicephalus microplus [6]): 100%
- pest or weed control at 0.02 mg (Rhipicephalus microplus [6]): 100%
- mortality at 20 mg/m2 [7]: 80 to 100%

Structure (SMILES): COCCN(C)C(=O)c1ccc(-n2nc(C)nc2[C@H](C)NC(=O)c2cc(C(F)(F)F)cc(C(F)(F)F)c2)nc1 [II-98]
- mortality at 100 g/ha (Spodoptera frugiperda): 83%
- mortality at 4 ppm (Myzus persicae [1]): 100%
- mortality at 100 g/ha (Myzus persicae [2]): 90%
- pest or weed control at 1 µg/cm2, 100 g/ha (Rhipicephalus sanguineus): 100%
- pest or weed control at 5 µg/cm2, 500 g/ha (Rhipicephalus sanguineus): 100%
- pest or weed control at 5 µg/cm2 (Rhipicephalus microplus [4]): 100%
- mortality at 100 ppm (Ctenocephalides felis [5]): 100%
- pest or weed control at 0.004 mg (Rhipicephalus microplus [6]): 100%

Structure (SMILES): C[C@H](NC(=O)c1cc(Cl)cc(OC(F)(F)F)c1)c1ncnn1-c1ncc(I)s1 [II-21]
- mortality at 500 g/ha (Spodoptera frugiperda): 100%
- mortality at 500 g/ha (Nezara viridula): 90%
- pest or weed control at 5 µg/cm2 (Ctenocephalides felis [3]): 80%
- pest or weed control at 32 µg/disc, 100 g/ha (Diabrotica balteata): 100%
- pest or weed control at 160 µg/disc, 500 g/ha (Diabrotica balteata): 100%
- pest or weed control at 5 µg/cm2 (Rhipicephalus microplus [4]): 100%
- mortality at 100 ppm (Ctenocephalides felis [5]): 100%
- pest or weed control at 0.004 mg (Rhipicephalus microplus [6]): 100%
- pest or weed control at 0.02 mg (Rhipicephalus microplus [6]): 100%
- mortality at 4 mg/m2 [7]: 80 to 100%
- mortality at 20 mg/m2 [7]: 80 to 100%

Structure (SMILES): Cc1nc([C@H](C)NC(=O)c2cc(Br)cc(OC(F)(F)F)c2)n(-c2cc(C#N)ccn2)n1 [II-106]
- mortality at 100 g/ha (Spodoptera frugiperda): 100%
- mortality at 4 ppm (Myzus persicae [1]): 100%
- mortality at 100 g/ha (Myzus persicae [2]): 90%
- pest or weed control at 1 µg/cm2, 100 g/ha (Rhipicephalus sanguineus): 100%
- pest or weed control at 5 µg/cm2, 500 g/ha (Rhipicephalus sanguineus): 100%
- pest or weed control at 5 µg/cm2 (Ctenocephalides felis [3]): 90%
- pest or weed control at 32 µg/disc, 100 g/ha (Diabrotica balteata): 100%
- pest or weed control at 5 µg/cm2 (Rhipicephalus microplus [4]): 100%
- mortality at 100 ppm (Ctenocephalides felis [5]): 100%
- pest or weed control at 0.004 mg (Rhipicephalus microplus [6]): 100%

Structure (SMILES): C[C@H](NC(=O)c1cc(C(F)(F)F)cc(C(F)(F)F)c1)c1nc(C(C)(C)C)nn1-c1ccc(C#N)cn1 [I-37]
- mortality at 100 g/ha (Spodoptera frugiperda): 100%
- mortality at 100 g/ha (Nezara viridula): 100%
- mortality at 100 g/ha (Myzus persicae [2]): 90%
- pest or weed control at 1 µg/cm2, 100 g/ha (Rhipicephalus sanguineus): 100%
- pest or weed control at 5 µg/cm2, 500 g/ha (Rhipicephalus sanguineus): 100%
- pest or weed control at 32 µg/disc, 100 g/ha (Diabrotica balteata): 100%
- pest or weed control at 5 µg/cm2 (Rhipicephalus microplus [4]): 100%
- mortality at 20 mg/m2 [8]: 80 to 100%
- pest or weed control at 0.004 mg (Rhipicephalus microplus [6]): 100%
- pest or weed control at 0.02 mg (Rhipicephalus microplus [6]): 100%
- mortality at 4 mg/m2 [7]: 80 to 100%
- mortality at 20 mg/m2 [7]: 80 to 100%
